One experiment deals with Two-Spotted Spider Mite. Description: Protocol 1 Two-Spotted Spider Mite (MTA) foliar spray test. It counts as in vivo, Tetranychus urticae. As to conditions: Protocol 1, DOSE 150; percentage of mites killed 1-day post-treatment. How it is done: A test solution containing 1250 parts per million (ppm) was prepared by dissolving the test compound in […] of a second solvent (acetone: water, 1:1) to give an acetone:water: methanol system of 50: 40:10.
The enclosed spraying chamber consisted of a single spray nozzle mounted on a boom moving at a fixed speed and distance over stationary targets. The vertical distance from the nozzle tip to the targets was adjusted to give rates varying from 150 g/ha to 600 g/ha
A pad of moistened cotton was placed in a Petri dish. A 1-inch square section cut from a fully expanded primary lima bean (Phaseolus limensis) leaf was positioned bottom side up on the moist cotton. The leaf square was infested with approximately 50 adult female mites. The dishes were sprayed with the test solutions and held at 27° C. for mortality determination 1-day post-treatment. The percentage of mites killed were rated from 100% (all dead) to 0% (all alive).

The subject of the next experiment is Sphaerotheca fuliginea. The experiment in a line: Cucumber Powdery Mildew (CPM) protectant test in the greenhouse. As to conditions: 100 is total disease control, 0 is no disease control; for Cucumber Powdery Mildew (CPM) protectant fungicide data, percent control: 300 g/ha; for pest or weed control at 300 g/ha: Podosphaera fuliginea, topical, 168 h, read-out: Cucumber Powdery Mildew (CPM) protectant fungicide data, percent control. It counts as in vivo. The gist of the method:
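Protectant format: one day after spraying with test compound (A/M/W 1:1:2), cotyledon-plus-one-leaf cucumber plants were misted with Sphaerotheca spores at 2×10^5/ml. Greenhouse disease development; percent control scored at day 7 (100 = total, 0 = none).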

A further experiment deals with Pyricularia oryzae. Description: whole plant or invertebrate. It counts as in vivo. The note with it: 100 is total disease control, 0 is no disease control; for Rice Blast (RB) protectant fungicide data, percent control: 300 g/ha, greenhouse; for pest or weed control at 300 g/ha: Pyricularia oryzae, topical, 144 h, read-out: Rice Blast (RB) protectant fungicide data, percent control, protectant, 300 g/ha, greenhouse.

Each structure is given as a SMILES string.

Turning to `CCCCN1N=C(c2ccc(F)c(F)c2)NCC1=O` [Compound 69], the MTA in the experiment with Two-Spotted Spider Mite is given as 68%. The “Cucumber Powdery Mildew (CPM) protectant fungicide data, percent control” value (from here on “Cucumber Powdery Mildew … percent control”) in the experiment with Sphaerotheca fuliginea stood at 80 percent control. Moreover, the “Rice Blast (RB) protectant fungicide data, percent control” value (“Rice Blast … percent control” below) with Pyricularia oryzae turned out to be 95 percent control.

As to `O=C1CN(Cc2ccc(Cl)s2)C(c2ccc(Cl)cc2)=NN1Cc1ccc(Cl)s1` [Compound 63], the MTA in the experiment with Two-Spotted Spider Mite turned out to be 0%.

As for `C=CCOC(=O)N1CC(=O)N(CC(F)(F)F)N=C1c1cc(Cl)cc(Cl)c1` [Compound 10, 1-(2,2,2-trifluoroethyl)-3-(3,5-dichlorophenyl)-4-allyloxycarbonyl-4,5-dihydro-1,2,4-triazin-6-one], the figures for the pest or weed control at 300 g/ha in the experiment with Sphaerotheca fuliginea and in the experiment on Pyricularia oryzae were 0% and 90%, respectively.

Consider `CCC#CCN1CC(=O)N(CC#CCC)N=C1c1ccc(Cl)c(Cl)c1` [Compound 209], for which, in the experiment on Sphaerotheca fuliginea, the “Cucumber Powdery Mildew … percent control” value is given as 0 percent control. Also, in the experiment with Pyricularia oryzae, the “Rice Blast … percent control” value is 75 percent control.

For `O=c1cnc(-c2ccc(Cl)cc2)nn1-c1ccccn1` [Compound 261], in the experiment on Sphaerotheca fuliginea, the “Cucumber Powdery Mildew … percent control” value is on record as 0 percent control. The “Rice Blast … percent control” value with Pyricularia oryzae is listed as 50 percent control.

Take `O=C1CNC(c2cc(Cl)cc(Cl)c2)=NN1` [Compound 64]: in the experiment with Sphaerotheca fuliginea, the “Cucumber Powdery Mildew … percent control” value worked out at 0 percent control. Besides, in the experiment with Pyricularia oryzae, the “Rice Blast … percent control” value is 50 percent control.

`CCCCn1nc(-c2ccc(F)c(Br)c2)ncc1=O` [Compound 289]: in the experiment on Sphaerotheca fuliginea, the “Cucumber Powdery Mildew … percent control” value turned out to be 50 percent control. The “Rice Blast … percent control” value in the experiment on Pyricularia oryzae is 100 percent control.

As for `C=CCOC(=O)N1CC(=O)N(CCCC)N=C1c1ccc(Cl)c(Cl)c1` [Compound 170], in the experiment with Sphaerotheca fuliginea, the “Cucumber Powdery Mildew … percent control” value turned out to be 75 percent control. Moreover, the “Rice Blast … percent control” value in the experiment with Pyricularia oryzae is reported as 90 percent control.

As for `CCC#CCN1N=C(c2ccc(Cl)c(Cl)c2)NCC1=O` [Compound 210], in the experiment on Sphaerotheca fuliginea, the “Cucumber Powdery Mildew … percent control” value is reported as 25 percent control. Further, the “Rice Blast … percent control” value with Pyricularia oryzae was determined as 100 percent control.

As for `O=C1CNC(c2cnc3ccccc3c2)=NN1CC(F)(F)F` [Compound 141], in the experiment on Sphaerotheca fuliginea, the “Cucumber Powdery Mildew … percent control” value came to 50 percent control. Also, the “Rice Blast … percent control” value in the experiment with Pyricularia oryzae is 85 percent control.

As for `CCCCN1N=C(c2ccc(Cl)c(Cl)c2)N(Cc2ccccc2)CC1=O` [Compound 182], the “Cucumber Powdery Mildew … percent control” value in the experiment with Sphaerotheca fuliginea was 0 percent control. The “Rice Blast … percent control” value in the experiment with Pyricularia oryzae is 85 percent control.

As for `CCCCN1N=C(c2ccc(Cl)cc2Cl)NCC1=O` [Compound 2, 1-butyl-3-(2,4-dichlorophenyl)-4,5-dihydro-1,2,4-triazin-6-one], the pest or weed control at 300 g/ha with Sphaerotheca fuliginea was determined as 85%; in the experiment with Pyricularia oryzae, 95%.

Regarding `CCCCN1N=C(c2ccc(Cl)c(Cl)c2)N(C(=O)C2CC2)CC1=O` [Compound 181], the “Cucumber Powdery Mildew … percent control” value in the experiment on Sphaerotheca fuliginea is 0 percent control. The “Rice Blast … percent control” value in the experiment with Pyricularia oryzae is recorded as 50 percent control.

`CCCOc1ccc(-c2ncc(=O)n(CC(F)(F)F)n2)cc1` [Compound 281]: in the experiment with Sphaerotheca fuliginea, the “Cucumber Powdery Mildew … percent control” value is reported as 95 percent control. For the same compound, the “Rice Blast … percent control” value in the experiment on Pyricularia oryzae amounted to 85 percent control.

On to `CCOC(=O)CN1N=C(c2ccc(Cl)c(Cl)c2)NCC1=O` [Compound 102], for which, in the experiment on Sphaerotheca fuliginea, the “Cucumber Powdery Mildew … percent control” value was 50 percent control. For the same compound, the “Rice Blast … percent control” value with Pyricularia oryzae is 85 percent control.

Consider `CCOC(=O)CN1N=C(c2ccc(F)c(F)c2)NCC1=O` [Compound 125], for which the “Cucumber Powdery Mildew … percent control” value in the experiment on Sphaerotheca fuliginea is reported as 50 percent control. In addition, the “Rice Blast … percent control” value in the experiment with Pyricularia oryzae is reported as 50 percent control.

For the compound `CCCCN1N=C(c2cccc(F)c2)NCC1=O` [Compound 221], the “Cucumber Powdery Mildew … percent control” value in the experiment on Sphaerotheca fuliginea is reported as 80 percent control. Also, the “Rice Blast … percent control” value in the experiment with Pyricularia oryzae stood at 85 percent control.

For `CCCCn1nc(-c2ccc(OC)cc2)ncc1=O` [Compound 244], the “Cucumber Powdery Mildew … percent control” value in the experiment with Sphaerotheca fuliginea is reported as 50 percent control. In the experiment with Pyricularia oryzae, the “Rice Blast … percent control” value is on record as 100 percent control.

On to `O=C1CNC(c2ccc(Cl)c(Cl)c2)=NN1CC(F)(F)F` [Compound 99], for which the “Cucumber Powdery Mildew … percent control” value with Sphaerotheca fuliginea stood at 80 percent control. Further, in the experiment on Pyricularia oryzae, the “Rice Blast … percent control” value is given as 100 percent control.

Regarding `Cc1cccc(N2N=C(c3ccc(Cl)cc3)NCC2=O)c1` [Compound 58], the “Cucumber Powdery Mildew … percent control” value with Sphaerotheca fuliginea is reported as 50 percent control. Besides, the “Rice Blast … percent control” value in the experiment with Pyricularia oryzae was 85 percent control.

For `CCc1ccc(C2=NN(CC(F)(F)F)C(=O)CN2)cc1` [Compound 150], the “Cucumber Powdery Mildew … percent control” value in the experiment on Sphaerotheca fuliginea turned out to be 50 percent control. The “Rice Blast … percent control” value in the experiment with Pyricularia oryzae stood at 100 percent control.

As for `CCCCN1N=C(c2cc(Cl)cc(Cl)c2)N(C(=O)OCOC(C)=O)CC1=O` [Compound 118], the “Cucumber Powdery Mildew … percent control” value in the experiment with Sphaerotheca fuliginea was 0 percent control. Besides, the “Rice Blast … percent control” value in the experiment with Pyricularia oryzae turned out to be 90 percent control.

For the compound `C#CCSC(=S)N1CC(=O)N(CCCC)N=C1c1ccc(Cl)c(Cl)c1` [Compound 192], in the experiment with Sphaerotheca fuliginea, the “Cucumber Powdery Mildew … percent control” value is recorded as 75 percent control. In the experiment with Pyricularia oryzae, the “Rice Blast … percent control” value turned out to be 99 percent control.

For the compound `CCCCN1N=C(c2ccc(OC)cc2)NCC1=O` [Compound 36], the “Cucumber Powdery Mildew … percent control” value with Sphaerotheca fuliginea amounted to 50 percent control. The “Rice Blast … percent control” value in the experiment on Pyricularia oryzae is 99 percent control.

On to `CCCCOc1ccc(-c2ncc(=O)n(CCC)n2)cc1` [Compound 280], for which, in the experiment with Sphaerotheca fuliginea, the “Cucumber Powdery Mildew … percent control” value came to 0 percent control. The “Rice Blast … percent control” value in the experiment on Pyricularia oryzae was found to be 50 percent control.

Regarding `Cc1cc(C2=NN(CC(F)(F)F)C(=O)CN2)ccc1[N+](=O)[O-]` [Compound 157], the “Cucumber Powdery Mildew … percent control” value in the experiment on Sphaerotheca fuliginea is recorded as 0 percent control. In the experiment on Pyricularia oryzae, the “Rice Blast … percent control” value is listed as 98 percent control.

`CCCN1N=C(c2cc(Cl)cc(Cl)c2)NCC1=O` [Compound 107]: in the experiment with Sphaerotheca fuliginea, the “Cucumber Powdery Mildew … percent control” value was found to be 95 percent control. Moreover, the “Rice Blast … percent control” value with Pyricularia oryzae is recorded as 99 percent control.

For the compound `CCCCN1N=C(c2cccc(C(F)(F)F)c2)NCC1=O` [Compound 115], the “Cucumber Powdery Mildew … percent control” value in the experiment on Sphaerotheca fuliginea is listed as 50 percent control. For the same compound, in the experiment on Pyricularia oryzae, the “Rice Blast … percent control” value is recorded as 100 percent control.

Take `CCCCN1N=C(C)NC(c2cccc(N)c2)C1=O` (centres unmarked) [Compound 78]: the “Cucumber Powdery Mildew … percent control” value in the experiment with Sphaerotheca fuliginea came out at 25 percent control. The “Rice Blast … percent control” value in the experiment on Pyricularia oryzae is reported as 0 percent control.

In the case of `O=C1CNC(c2cccc(Cl)c2)=NN1c1ccccc1` [Compound 111], the “Cucumber Powdery Mildew … percent control” value in the experiment on Sphaerotheca fuliginea is reported as 90 percent control. Moreover, the “Rice Blast … percent control” value with Pyricularia oryzae is 85 percent control.

On to `CS(=O)(=O)N1CC(=O)N(CC(F)(F)F)N=C1c1ccc(Cl)cc1` [Compound 42], for which the “Cucumber Powdery Mildew … percent control” value in the experiment with Sphaerotheca fuliginea was 50 percent control. In the experiment on Pyricularia oryzae, the “Rice Blast … percent control” value is reported as 99 percent control.

In the case of `CCCCCCCCN1N=C(c2ccc(Cl)cc2)NCC1=O` [Compound 56], the “Cucumber Powdery Mildew … percent control” value in the experiment with Sphaerotheca fuliginea came out at 80 percent control. Besides, the “Rice Blast … percent control” value in the experiment with Pyricularia oryzae came out at 80 percent control.

Regarding `CCCCN1Nc2c3c(Cl)c(Cl)ccc3cn2CC1=O` [Compound 23, 9,10-Dichloro-2-butyl-1,2,4-triazino[3,4-a]isoindol-3(4H)-one], the pest or weed control at 300 g/ha in the experiment on Sphaerotheca fuliginea was determined as 50%; with Pyricularia oryzae, 0%.

For `CCCCN1N=C(c2ccc(-c3ccc(C(=O)OCC)cc3)cc2)NCC1=O` [Compound 206], the “Cucumber Powdery Mildew … percent control” value with Sphaerotheca fuliginea came out at 80 percent control. In addition, the “Rice Blast … percent control” value in the experiment with Pyricularia oryzae amounted to 85 percent control.

In the case of `CCCCN1N=C(c2ccc(Cl)c(Cl)c2)N(C(=O)C(=O)OC)CC1=O` [Compound 85], the “Cucumber Powdery Mildew … percent control” value in the experiment on Sphaerotheca fuliginea amounted to 50 percent control. Further, in the experiment on Pyricularia oryzae, the “Rice Blast … percent control” value is given as 100 percent control.

As for `O=c1[nH]c(-c2cc(Cl)cc(Cl)c2)nn(CC(F)(F)F)c1=O` [Compound 21, 1-(2,2,2-Trifluorethyl)-3-(3,5-dichlorophenyl)-1,2,4-triazin-5,6-dione], in the experiment on Sphaerotheca fuliginea, the “Cucumber Powdery Mildew … percent control” value amounted to 50 percent control. In addition, the “Rice Blast … percent control” value with Pyricularia oryzae was found to be 0 percent control.

Consider `C#CCN1N=C(c2ccc(Cl)c(Cl)c2)NCC1=O` [Compound 215], for which the “Cucumber Powdery Mildew … percent control” value with Sphaerotheca fuliginea is 0 percent control. Besides, the “Rice Blast … percent control” value with Pyricularia oryzae is recorded as 85 percent control.

The record behind these values is patent US7494996B2 (priority 2000, dated 2009).
